Reference: publication PMC11923649, “Novel C-2 Aromatic Heterocycle-Substituted Triterpenoids Inhibit Hedgehog Signaling in GLI1 Overexpression Cancer Cells” (ACS Omega, 2025)

Tests used:
MRC-5 lung fibroblasts = experiment: MTS cytotoxicity assay, 72 h, MRC-5 fibroblasts; format: cell-based, human; conditions: Homo sapiens, MRC5, 72 h, normal fibroblasts
Method: (§1) Based on the preliminary results and tests of a larger library of known triterpenoids, a small set of 2-substituted lupane and 18α-oleanane derivatives was designed and synthesized. As the first step, the cytotoxic activity of the synthesized derivatives was assessed using an MTS assay following 72 h of treatment (Table 1). Selected cell lines A549 (lung adenocarcinoma) and DU-145 (prostate cancer) are both dependent on Hh signaling. In addition, K562 (chronic myelogenous leukemia) was included as a cell line sensitive to Hh inhibitors[32] and a type of hematological malignancy with active Hh signaling.[33] MRC-5 lung fibroblasts and BJ human skin fibroblasts cell lines were used to evaluate the toxicity against nontumor cells. Compounds were also tested using the standard panel of other cancer cell lines, as described in our earlier work (Table 1).[27]
(§2) The human prostate tumor-derived cell line DU145 was obtained from ATCC (American Type Culture Collection) and cultured in RPMI 1640 (Roswell Park Memorial Institute) medium supplemented with 10% (v/v) fetal bovine serum (FBS). Human prostate tumor-derived LNCaP cells were obtained from ATCC and cultured in RPMI 1640 medium supplemented with 10% FBS. The human nonsmall cell lung carcinoma (NSCLC)-derived cell line HOP-62 was obtained from the DSMZ (German Collection of Microorganisms and Cell Cultures) and cultured in RPMI 1640 medium supplemented with 10% FBS. The human nonsmall cell lung carcinoma-derived cell line NCI-H322 was obtained from ECACC (European Collection of Authenticated Cell Cultures) and cultured in RPMI 1640 medium supplemented with 10% FBS. The human nonsmall cell lung carcinoma-derived cell line NCI-H522 was obtained from ATCC and cultured in RPMI 1640 medium supplemented with 10% FBS. The human lung tumor-derived cell line A549 was obtained from ATCC and cultured in Dulbecco’s Modified Eagle’s Medium (DMEM) supplemented with 10% FBS. The human medulloblastoma-derived cell line DAOY was obtained from ATCC and cultured in Eagle’s Minimum Essential Medium (EMEM) supplemented with 10% FBS. The human glioblastoma-derived cell line T98G was obtained from ATCC and cultured in EMEM medium supplemented with 10% FBS, 1 mmol/L sodium pyruvate, and 1 mmol/L nonessential amino acid mixture. All the above-mentioned cell lines were cultured at 37 °C in an atmosphere of 5% CO2 with 95% humidity. The cytotoxicity MTS assays were performed using MTS (3-(4,5-dimethylthiazol-2-yl)-5-(3-carboxymethoxyphenyl)-2-(4-sulfophenyl)-2H-tetrazolium) tetrazolium salt. Briefly, cells were seeded in a 384-well transparent plate in a volume of 25 μL and a concentration of 15,000 cells/mL (DU145, LNCaP, HOP-62, A549, DAOY, T98G) or 30,000 cells/mL (NCI-H322, NCI-H522). The next day, cells were exposed to compounds in a concentration range of 50–0.0975 μmol/L (dilution factor 2) and cultured in the presence of the compounds for 72 h. After 72 h, 5 μL of MTS/phenazine methosulfate solution was pipetted into each well and incubation continued for 1–4 h. Finally, the absorbance at 490 nm was measured using an EnVision multifunctional modular reader (PerkinElmer). The IC50 value was determined using Dotmatics software.

DU-145 (prostate cancer) = experiment: MTS cytotoxicity assay, 72 h, DU-145; format: cell-based, human; conditions: Homo sapiens, DU-145, 72 h
Method: as §1, §2

K562-TAX = experiment: MTS cytotoxicity assay, 72 h, K562-TAX; format: cell-based
Method: as §1, §2

CCRF-CEM = experiment: MTS cytotoxicity assay, 72 h, CCRF-CEM; format: cell-based; conditions: for IC50: Homo sapiens, CCRF-CEM, 72 h, MTS
Method: as §1, §2

[1] = tested on: A549 (lung adenocarcinoma); experiment: MTS cytotoxicity assay, 72 h, A549; format: cell-based; conditions: Homo sapiens, A549, 72 h
Method: as §1, §2

HCT 116 = experiment: MTS cytotoxicity assay, 72 h, HCT 116; format: cell-based; conditions: Homo sapiens, HCT-116, 72 h
Method: as §1, §2

U2OS = experiment: MTS cytotoxicity assay, 72 h, U2OS; format: cell-based; conditions: Homo sapiens
Method: as §1, §2

CEM-DNR = experiment: MTS cytotoxicity assay, 72 h, CEM-DNR; format: cell-based; conditions: Homo sapiens
Method: as §1, with “1).[27] […]” for “1).[27]”

HCT116 p53–/– = experiment: MTS cytotoxicity assay, 72 h, HCT116 p53–/–; format: cell-based; conditions: Homo sapiens, HCT-116, 72 h
Method: as §1, §2

[2] = tested on: K562 (chronic myelogenous leukemia); experiment: MTS cytotoxicity assay, 72 h, K562; format: cell-based; conditions: Homo sapiens
Method: as §1, §2

[3] = tested on: BJ human skin fibroblasts; experiment: MTS cytotoxicity assay, 72 h, BJ fibroblasts; format: cell-based; conditions: Homo sapiens, Skin fibroblast, normal fibroblasts
Method: as §1, §2

[4] = IC50 of CCRF-CEM line vs average of both fibroblasts (BJ and MRC-5), Table 1
[5] = CCRF-CEM vs average of BJ and MRC-5, full Table S1

Structure (SMILES) | IC50 (MRC-5 lung fibroblasts; Table 1) | IC50 (DU-145 (prostate cancer); Table 1) | IC50 (DU-145 (prostate cancer); full Table S1) | IC50 (K562-TAX; Table 1) | IC50 (K562-TAX; full Table S1) | IC50 (CCRF-CEM; Table 1) | IC50 (CCRF-CEM; full Table S1) | IC50 ([1]; Table 1) | IC50 (HCT 116; Table 1) | IC50 (U2OS; Table 1) | IC50 (CEM-DNR; Table 1) | IC50 (HCT116 p53–/–; Table 1) | IC50 ([2]; Table 1) | IC50 ([3]; Table 1) | IC50 (CEM-DNR; full Table S1) | IC50 (MRC-5 lung fibroblasts; full Table S1) | SI (selectivity index) (CCRF-CEM; [5]) | IC50 ([1]; full Table S1) | IC50 (HCT 116; full Table S1) | IC50 (U2OS; full Table S1) | other results
CC1(C)C(=O)C(c2ccncc2)=C[C@@]2(C)C1CC[C@]1(C)C2CCC2C3[C@H]4OC[C@@]3(CCC4(C)C)CC[C@]21C (stereo partly drawn) [Compound 4h, 2-(Pyridine-4-yl)-19β,28-epoxyolean-1-en-3-one] | > 50 µM | 22 µM | 22.1 µM | 18 µM | 18.1 µM | 19 µM | 18.7 µM | > 50 µM | > 50 µM | > 50 µM | 19 µM | > 50 µM | > 50 µM | > 50 µM |  |  |  |  |  |  | SI (selectivity index) (CCRF-CEM; [4]): >2.7
CC1(C)C(=O)C(c2cncnc2)=C[C@@]2(C)C1CC[C@]1(C)C2CCC2C3[C@H]4OC[C@@]3(CCC4(C)C)CC[C@]21C (stereo partly drawn) [Compound 4i, 2-(Pyrimidin-5-yl)-19β,28-epoxyolean-1-en-3-one] | > 50 µM | > 50 µM |  | > 50 µM |  | > 50 µM |  | > 50 µM | > 50 µM | > 50 µM | 27 µM | > 50 µM | > 50 µM | > 50 µM | 27.4 µM |  |  |  |  |  | 
CC1(C)C(=O)C(c2ccc3c(c2)OCCO3)=C[C@@]2(C)C1CC[C@]1(C)C2CCC2C3[C@H]4OC[C@@]3(CCC4(C)C)CC[C@]21C (stereo partly drawn) [Compound 4j, 2-(1,4-Benzodioxan-6-yl)-19β,28-epoxyolean-1-en-3-one] |  |  | > 50 µM |  | > 50 µM |  | > 50 µM |  |  |  |  |  |  |  | > 50 µM | > 50 µM | > 1.0 | > 50 µM | > 50 µM | > 50 µM | IC50 (HCT116 p53–/–; full Table S1): > 50 µM; IC50 ([2]; full Table S1): > 50 µM; IC50 ([3]; full Table S1): > 50 µM
CC1(C)C(=O)C(c2cc3ccccc3s2)=C[C@@]2(C)C1CC[C@]1(C)C2CCC2C3[C@H]4OC[C@@]3(CCC4(C)C)CC[C@]21C (stereo partly drawn) [Compound 4k, 2-(Benzo[b]thien-2-yl)-19β,28-epoxyolean-1-en-3-one] |  |  | > 50 µM |  | > 50 µM |  | > 50 µM |  |  |  |  |  |  |  | > 50 µM | > 50 µM | > 1.0 | > 50 µM | > 50 µM | > 50 µM | IC50 (HCT116 p53–/–; full Table S1): > 50 µM; IC50 ([2]; full Table S1): > 50 µM; IC50 ([3]; full Table S1): > 50 µM
CC1(C)C(=O)C(c2cncc3ccccc23)=C[C@@]2(C)C1CC[C@]1(C)C2CCC2C3[C@H]4OC[C@@]3(CCC4(C)C)CC[C@]21C (stereo partly drawn) [Compound 4l, 2-(Isoquinolin-4-yl)-19β,28-epoxyolean-1-en-3-one] | > 50 µM | 32 µM | 32.1 µM | > 50 µM |  | > 50 µM |  | > 50 µM | > 50 µM | > 50 µM | > 50 µM | > 50 µM | > 50 µM | > 50 µM |  |  |  |  |  |  | 
CC1(C)C(=O)C(c2ccc3[nH]ccc3c2)=C[C@@]2(C)C1CC[C@]1(C)C2CCC2C3[C@H]4OC[C@@]3(CCC4(C)C)CC[C@]21C (stereo partly drawn) [Compound 4m, 2-(Indol-5-yl)-19β,28-epoxyolean-1-en-3-one] | > 50 µM | 26 µM | 25.8 µM | > 50 µM |  | 26 µM | 26.1 µM | > 50 µM | > 50 µM | > 50 µM | > 50 µM | > 50 µM | > 50 µM | > 50 µM |  |  |  |  |  |  | SI (selectivity index) (CCRF-CEM; [4]): >1.9
C=C(C)[C@@H]1CC[C@]2(C(=O)OCc3ccccc3)CC[C@]3(C)C(CCC4[C@@]5(C)C=C(c6ccco6)C(=O)C(C)(C)C5CC[C@]43C)C12 (some centres unmarked) [Compound 10a, Benzyl 2-(2-Furanyl)-3-oxolupa-1,20(29)-dien-28-oate] |  |  | > 50 µM |  | > 50 µM |  | > 50 µM |  |  |  |  |  |  |  | > 50 µM | > 50 µM | > 1.0 | > 50 µM | > 50 µM | > 50 µM | IC50 (HCT116 p53–/–; full Table S1): > 50 µM; IC50 ([2]; full Table S1): > 50 µM; IC50 ([3]; full Table S1): > 50 µM
